The record followed here is ChEMBL document CHEMBL1201862, “PubChem BioAssay data set” (2004).

The structures appear in SMILES notation.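 Protocol summary: plate cells (96-well), add compound at 5 concentrations, incubate 48 h, interpolate endpoints linearly. GI50: concentration for 50% inhibition of growth.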 Activity calls are given as the source filed them. Rule as the data show it: active = GI50 up to about 1.1 µM and inactive = higher. Where only a bound is given, the exact number is not on record here.

Some test systems named below: XF498; DMS-114; KM-20L2; DLD-1; LXFL 529; RXF 631; NCI/ADR-RES; MDA-MB-231; Hs-578T.
Common to all, as to test: inhibition of tumour cell growth, NCI panel, 48 h

Regarding `Cc1ccc(S(=O)(=O)NC(=O)C2(Br)S(=O)(=O)OCCOS2(=O)=O)cc1`, the GI50 with XF498, with DMS-114, in the test with KM-20L2, with DLD-1 and with LXFL 529 was > 100 µM (inactive) throughout.

For `COC(=O)C(=O)C(C(=O)C(=O)Nc1ccccc1C(N)=O)c1nc2ccc([N+](=O)[O-])cc2nc1O` (stereo unspecified), the GI50 in the test on RXF 631, in the test on XF498, in the test on KM-20L2, in the test on DLD-1 and in the test with LXFL 529 was > 100 µM (inactive) throughout.

With `CSc1nc(NC2OCC(OC(C)=O)C(OC(C)=O)C2OC(C)=O)c(/N=C(\C)C(C)=O)c(=O)n1C` (stereo unspecified), the GI50 in the test on RXF 631, in the test with XF498, in the test on DMS-114, in the test on KM-20L2, with DLD-1 and with LXFL 529 was > 100 µM (inactive) in each case.

For the molecule `O=C1OC(c2ccccc2)=N/C1=C\c1cc(Cl)ccc1Cl`, the GI50 with RXF 631 is 25 µM (inactive); in the test on DMS-114 it was 49.8 µM (inactive); with KM-20L2 it was > 100 µM (inactive); in the test on DLD-1, 33.8 µM (inactive); with LXFL 529 it was 28.5 µM (inactive).

Regarding `CN(C)CC1CCCCCCCCCCCCC(CN(C)C)C1=O` (stereo unspecified), the GI50 with DMS-114 was 16.9 µM (inactive); with KM-20L2 it was 11.9 µM (inactive); with DLD-1, 15.6 µM (inactive); with LXFL 529, 14.9 µM (inactive).

With `Cc1c2ccncc2c(C)c2c1[nH]c1ccc(OC(C)C)cc12`, the GI50 in the test on XF498 was 1.52 µM (inactive); in the test with DMS-114, 1.49 µM (inactive); in the test with KM-20L2, 1.18 µM (inactive); with DLD-1, 1.35 µM (inactive); in the test with LXFL 529, 0.787 µM (active).

Consider `COc1ccc(/C=C\c2cc(OC)c(OC)c(OC)c2)cc1OCC(=O)O`, for which the GI50 in the test with RXF 631 is > 100 µM (inactive); in the test with DMS-114 it was 4.16 µM (inactive); in the test on KM-20L2, > 100 µM (inactive); with NCI/ADR-RES, 2.21 µM (inactive); in the test on DLD-1 it was 7.45 µM (inactive); in the test with LXFL 529, 6.55 µM (inactive). Besides, the values for the GI50 in the test on MDA-MB-231 and in the test with Hs-578T were 18 µM (inactive) and 2.93 µM (inactive), respectively.

As for `COc1ccc(C2N3CCCCC3[C@@H]3c4[nH]c5ccccc5c4CCN23)c(OC)c1` (stereo partly specified), the GI50 in the test on XF498 is 14.1 µM (inactive); in the test on DMS-114, 18.7 µM (inactive); with KM-20L2, 18.8 µM (inactive); in the test on DLD-1, 33.4 µM (inactive); with LXFL 529, 21.8 µM (inactive).

Turning to `Nc1c(C(=O)NC23CC4CC(CC(C4)C2)C3)[n+]([O-])c2ccccc2[n+]1[O-]`, the GI50 with XF498, in the test on KM-20L2, in the test on DLD-1 and in the test on LXFL 529 was > 100 µM (inactive) each time.

Take `O=C(N/N=C/c1ccccc1O)c1cccc([N+](=O)[O-])c1`: the GI50 with XF498 was 92.3 µM (inactive); in the test on DMS-114, 3.65 µM (inactive); with KM-20L2 it was 8.49 µM (inactive); with DLD-1 it was 45.7 µM (inactive); in the test on LXFL 529 it was 40.8 µM (inactive).

As for `Cn1cnc(S[C@H]2[C@H]3C(=O)C=C4S[C@H]5C[C@]42C2=C(N5)C(=O)c4[nH]cc5c4C2=[N+]3CC5)c1C[C@H](N)C(=O)O`, the GI50 was 15.3 µM (inactive) in the test on XF498; 2.52 µM (inactive) in the test on DMS-114; 4.47 µM (inactive) with KM-20L2; 17.2 µM (inactive) in the test on DLD-1; 14.1 µM (inactive) with LXFL 529.

Regarding `COC(=O)C12CC3CC(C1)CC(C(=O)OC)(C3)C2`, the GI50 in the test with XF498, in the test with DMS-114, in the test with KM-20L2, with DLD-1 and with LXFL 529 was > 100 µM (inactive) throughout.

For the molecule `COc1ccc(-c2cc(=O)c3c(O)c(OC)c(O)c(OC)c3o2)cc1OC`, the GI50 in the test on XF498 is 78.3 µM (inactive); in the test with DMS-114, > 100 µM (inactive); in the test on KM-20L2, > 100 µM (inactive); in the test with DLD-1, 54.8 µM (inactive); with LXFL 529, 61.1 µM (inactive).

Take `COc1cc2ccc3c4cc(OC)c(OC(C)C)cc4c[n+](C)c3c2cc1OC`: the GI50 in the test with DMS-114 was 9.64 µM (inactive); in the test on KM-20L2, > 100 µM (inactive); in the test on DLD-1, > 100 µM (inactive); with LXFL 529 it was 14.2 µM (inactive).

Take `CN1N=C(Nc2ccccc2)Sc2c1cnn(-c1ccccc1)c2=O`: the GI50 in the test with DMS-114 is 30.4 µM (inactive); with KM-20L2, > 100 µM (inactive); with DLD-1, > 100 µM (inactive); in the test on LXFL 529, 79.8 µM (inactive).

As to `Cc1cnc[nH]c1=O`, the GI50 with RXF 631, in the test on DMS-114, in the test on KM-20L2, in the test with DLD-1 and in the test with LXFL 529 was > 100 µM (inactive) in each case.

For the molecule `Cc1ccccc1C(=O)Oc1ccc(Oc2ccccc2)cc1`, the GI50 with XF498, in the test on DMS-114, in the test with KM-20L2, in the test on DLD-1 and in the test on LXFL 529 was > 100 µM (inactive) each time.

For the molecule `Cc1cc(Cl)ccc1Nc1nc2c(s1)C(=O)c1ccccc1C2=O`, the GI50 with RXF 631 is 6.46 µM (inactive); with DMS-114, 2.2 µM (inactive); in the test on KM-20L2, 18.9 µM (inactive); in the test on DLD-1 it was 5.45 µM (inactive); in the test with LXFL 529, 3.67 µM (inactive); in the test with MDA-MB-231, 1.3 µM (inactive). In the test on Hs-578T, the GI50 was 2.39 µM (inactive).

For the molecule `CCCN1C(=O)CNC(=O)c2[nH]cnc21`, the GI50 in the test with XF498, in the test with DMS-114, in the test on KM-20L2, in the test with DLD-1 and in the test on LXFL 529 was > 100 µM (inactive) each time.

In the case of `COc1cc(C2[C@H]3C(=O)N(c4ccc(Cc5ccc(N6C(=O)[C@@H]7ON(c8ccccc8)C(c8cc(OC)c(OC)c(OC)c8)[C@@H]7C6=O)cc5)cc4)C(=O)[C@H]3ON2c2ccccc2)cc(OC)c1OC` (stereo partly specified), the GI50 with RXF 631, with DMS-114, with KM-20L2 and with DLD-1 was > 100 µM (inactive) each time.

As for `COc1ccc2c(c1OC)C(C(Cl)(Cl)Cl)N1CCc3cc4c(cc3C1=C2)OCO4` (stereo unspecified), the GI50 is 44.6 µM (inactive) in the test on NCI/ADR-RES, 23.5 µM (inactive) with MDA-MB-231 and 18.4 µM (inactive) in the test on Hs-578T.

On to `Nc1cc2c3c(cccc3c1)C(=O)N(CCN1CCN(CCN3C(=O)c4cccc5cc(N)cc(c45)C3=O)CC1)C2=O`, for which the GI50 in the test on RXF 631 is > 100 µM (inactive); with XF498, > 100 µM (inactive); in the test with DMS-114, > 100 µM (inactive); in the test with KM-20L2 it was > 100 µM (inactive); with LXFL 529 it was 67 µM (inactive).

Regarding `O=C(O)CS(=O)(=O)C(c1ccccc1)c1ccccc1`, the GI50 in the test on NCI/ADR-RES, with MDA-MB-231 and in the test on Hs-578T was > 100 µM (inactive) each time.

As to `O=C1CNc2cc(N3CCN(c4ccccc4)CC3)ccc2N1`, the GI50 in the test with NCI/ADR-RES, in the test with MDA-MB-231 and with Hs-578T was > 100 µM (inactive) throughout.

As for `COc1cccc(C2c3cc4c(cc3OC(Nc3ccccc3)C2C)OCO4)c1O` (stereo unspecified), the GI50 is 7.5 µM (inactive) with NCI/ADR-RES, 12.7 µM (inactive) in the test with MDA-MB-231 and 5.81 µM (inactive) in the test on Hs-578T.

Turning to `C=CCn1cc(C(=O)NC(=O)NCCCCCOC(=O)CCCCCCCCCCC(=O)OCCCCCNC(=O)NC(=O)c2cn(CC=C)c(=O)n(C)c2=O)c(=O)n(C)c1=O`, the GI50 in the test with XF498, in the test on DMS-114, in the test with KM-20L2, in the test with DLD-1 and in the test on LXFL 529 was > 100 µM (inactive) each time.

In the case of `CC(=O)OC1CC2C(C)(C)OC(=O)CC(OC(C)=O)[C@]2(C)C2CCC3(C)C(=CCC3c3ccoc3)[C@]12C` (stereo partly specified), the GI50 is 13.8 µM (inactive) in the test on XF498; 19.6 µM (inactive) with DMS-114; 28.1 µM (inactive) with KM-20L2; 13 µM (inactive) in the test with DLD-1; 13.9 µM (inactive) in the test with LXFL 529.

`Cc1ccc(CC[PH](=O)CCc2ccc(C)nc2)cn1`: the GI50 in the test on NCI/ADR-RES, in the test with MDA-MB-231 and in the test with Hs-578T was > 100 µM (inactive) in each case.

In the case of `Oc1cc(O)c2c(c1)O[C@H](c1cc(O)c(O)c(O)c1)[C@@H](O)C2` [GALLOCATECHIN], the results for the GI50 in the test on NCI/ADR-RES, with MDA-MB-231 and in the test on Hs-578T were 36.2 µM (inactive), 18.7 µM (inactive) and 46.6 µM (inactive), respectively.

Consider `CC1(C)CC(=O)C(CC2C(=O)CCCC2=O)C(=O)C1`, for which the GI50 was 33.2 µM (inactive) in the test on XF498; > 100 µM (inactive) with DMS-114; > 100 µM (inactive) in the test on KM-20L2; > 100 µM (inactive) with DLD-1; > 100 µM (inactive) in the test on LXFL 529.

Take `Cc1ccc2c(c1)C(C(=O)N[C@@H]1C(=O)N3[C@@H]1SC(C)(C)[C@@H]3C(=O)O)OCCC2` (stereo partly specified): the GI50 in the test with NCI/ADR-RES, in the test with MDA-MB-231 and with Hs-578T was > 100 µM (inactive) in each case.

Take `COc1ccc(S(=O)(=O)N2C(=O)CCC2C(=O)NC(N)=O)cc1` (stereo unspecified): the GI50 with NCI/ADR-RES, in the test on MDA-MB-231 and in the test on Hs-578T was > 100 µM (inactive) throughout.

Regarding `CCCCCCCCCCCCCCCCCc1nnc(N)o1`, the GI50 with RXF 631, with XF498, in the test with KM-20L2, with DLD-1 and with LXFL 529 was > 100 µM (inactive) each time.

For the molecule `C1=CC2CCC1CN2CCC1CNc2ccccc21` (stereo unspecified), the GI50 is 52.7 µM (inactive) in the test on XF498; > 100 µM (inactive) in the test on DMS-114; > 100 µM (inactive) in the test with KM-20L2; > 100 µM (inactive) with DLD-1; > 100 µM (inactive) in the test with LXFL 529.

Regarding `CC1=Nc2c(C#N)ncn2N=C(C)C1`, the GI50 with NCI/ADR-RES, with MDA-MB-231 and with Hs-578T was > 100 µM (inactive) throughout.

As for `CCOC(=O)c1sc2c(c1OC(=O)c1ccco1)c(=O)n(-c1ccccc1)c(=S)n2-c1ccccc1`, the GI50 in the test with NCI/ADR-RES was 21.4 µM (inactive); in the test on MDA-MB-231, 28.1 µM (inactive); in the test on Hs-578T, 27.5 µM (inactive).
